In patent US11596622B2, “Mazindol treatment for heroin dependence and substance use disorder” (NLS Pharmaceutics AG, priority 2017, dated 2023):

Columns and labels:
[1] = tested on: Sprague-Dawley rats; assay: Naloxone precipitated withdrawal syndrome of heroin; format: in vivo; conditions: for Abdominal constrictions score (Abd C) / Abnormal posture score (Ab P) / Chromodacryorrhea score (Chr) / Diarrhea score (Diarr) / Erection or ejaculation score (Er Ej) / Escape attempts score (Esc A) / Facial fasciculation or teeth chattering score (F F T C) / Global Score / Irritability score (Irrit) / Profuse salivation score (Pr Sal) / Ptosis score (Ptos) / Swallowing movements score (Sw M) / Weight loss score (W Los) / Wet dog shakes score (W D S): mean
Method: The abrupt cessation of chronic opiate use results in a well characterized withdrawal syndrome with symptoms that include pain sensitivity, dysphoria, irritability, restlessness, insomnia, diarrhea and hyperventilation. In the present model, the naloxone-precipitated withdrawal syndrome is measured in rodents. Animals are chronically treated with a drug, e.g. morphine or heroin. Opiate withdrawal syndrome is elicited by an acute injection of the opiate antagonist Naloxone.
The effect of mazindol on heroin withdrawal syndrome elicited by naloxone was examined in Sprague-Dawley rats using a method similar to the one used by Jiang et al. (10),
Animals were subdivided into two groups. One group received heroin two i.p. injections/day for 12 consecutive days and a single injection on the 13th day (total: 25 injections) as exposed in Table 3 group received saline instead of heroin following the same protocol.
On day 13, animals received treatments and were tested according to the following time schedule: • T=0: i.p. injection of heroin (15 mg/kg) or vehicle. • T=2.5 h: animals individually placed in a transparent Plexiglas observation boxes (40×40×40 cm). • T=3.5 h: i.p. injection of treatment (see below). • T=4 h: i.p. injection of naloxone (5 mg/kg), start of test: observation of withdrawal symptoms as indicated in Table 4. • T=5 h: end of test, animals placed back into their home cages.
Animals received the following treatments at T 3.5 h (i.e. 30 min before injection of naloxone and observation of symptoms): • 1) Animals treated with saline during the intoxication period (days 1-12) and at T0 on day 13: • Saline group (N=8): saline (0.9% NaCl). • 2) Animals treated with […] during the intoxication period (days 1-12) and at T0 on day 13: • Hero group (N=14): saline (0.9% NaCl). • Amph 1 group (N=4): D-amphetamine (1 mg/kg). • Maz 0.125 group (N=5): mazindol (0.125 mg/kg). • Maz 0.25 group (N=6): mazindol (0.25 mg/kg). • Maz 0.5 group (N=6): mazindol (0.5 mg/kg). • Maz 1 group (N=6): mazindol (1 mg/kg). • Maz 2 group (N=5): mazindol (2 mg/kg).
A weighting factor was ascribed for each sign from which a score was calculated.
Examples: • Body weight before naloxone injection=241 g; after naloxone injection=236 g: • Weight loss score=2=100×(241−236)/241 • Number of escape attempts=8: • Score for escape attempts=2 • Profuse salivation present: • Score for profuse salivation
A global withdrawal score was then calculated: • Global score=the sum of the scores

[2] = target: T1, 5-HT7(h) (Homo sapiens, UniProt P34969); assay: Radioligand binding, 5-HT7 (Eurofins CEREP); conditions: 1.0 × 10^−05 M; agonist radioligand; read-out: percent inhibition of the binding of a radioactively labeled ligand
T1 construct: Eurofins CEREP
Source text: Table A discloses mazindol and Met tested at […] and the compound binding calculated as a percent inhibition of the binding of a radioactively labeled ligand specific for each target (Eurofins CEREP, France).
An inhibition or stimulation of more than 50% is considered a significant effect of the test compounds. Fifty percent is a common cut-off for further investigation (i.e. determination of IC50 or EC50 values from concentration-response curves). Tables B and C display the binding profiles for Mazindol and Met.
The results are expressed as a percent of control specific binding obtained in the presence of the test compounds:
[formula] and as a percent inhibition of control specific binding obtained in the presence of the test compounds: […]

[3] = Maz 0.125: heroin-treated rats, mazindol 0.125 mg/kg i.p. 30 min before naloxone 5 mg/kg
[4] = Maz 0.25: heroin-treated rats, mazindol 0.25 mg/kg i.p. 30 min before naloxone 5 mg/kg
[5] = Maz 0.5: heroin-treated rats, mazindol 0.5 mg/kg i.p. 30 min before naloxone 5 mg/kg
[6] = Maz 1: heroin-treated rats, mazindol 1 mg/kg i.p. 30 min before naloxone 5 mg/kg
[7] = Maz 2: heroin-treated rats, mazindol 2 mg/kg i.p. 30 min before naloxone 5 mg/kg

T1 sequence (P34969 whole entry): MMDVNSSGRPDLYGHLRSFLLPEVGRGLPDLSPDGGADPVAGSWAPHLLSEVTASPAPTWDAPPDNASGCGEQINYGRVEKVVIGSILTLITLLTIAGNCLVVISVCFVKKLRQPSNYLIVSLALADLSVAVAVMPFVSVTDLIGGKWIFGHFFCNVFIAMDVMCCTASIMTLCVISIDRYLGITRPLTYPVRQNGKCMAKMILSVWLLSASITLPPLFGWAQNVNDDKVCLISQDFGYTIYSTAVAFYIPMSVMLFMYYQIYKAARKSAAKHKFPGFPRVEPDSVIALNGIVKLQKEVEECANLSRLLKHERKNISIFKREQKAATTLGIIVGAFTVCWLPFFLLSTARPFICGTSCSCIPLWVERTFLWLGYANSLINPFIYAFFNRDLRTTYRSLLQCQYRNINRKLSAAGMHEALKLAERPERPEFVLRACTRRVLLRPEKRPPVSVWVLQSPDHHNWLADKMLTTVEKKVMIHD

## OC1(c2ccc(Cl)cc2)c2ccccc2C2=NCCN21 (stereo not drawn) [Mazindol, 5-(4-chlorophenyl)-2,5-dihydro-3 H-imadazo[2,1-a]isoindol-5-ol]
[1]; [3]
  Abdominal constrictions score (Abd C): 2.8
  Abnormal posture score (Ab P): 0.0
  Chromodacryorrhea score (Chr): 2.0
  Diarrhea score (Diarr): 0.8
  Erection or ejaculation score (Er Ej): 0.0
  Escape attempts score (Esc A): 1.0
  Facial fasciculation or teeth chattering score (F F T C): 1.6
  Global Score: 13.2
  Irritability score (Irrit): 0.0
  Profuse salivation score (Pr Sal): 0.0
  Ptosis score (Ptos): 0.0
  Swallowing movements score (Sw M): 1.2
  Weight loss score (W Los): 1.0
  Wet dog shakes score (W D S): 2.8
[1]; [4]
  Abdominal constrictions score (Abd C): 0.0
  Abnormal posture score (Ab P): 0.0
  Chromodacryorrhea score (Chr): 0.8
  Diarrhea score (Diarr): 1.0
  Erection or ejaculation score (Er Ej): 0.0
  Escape attempts score (Esc A): 0.7
  Facial fasciculation or teeth chattering score (F F T C): 2.0
  Global Score: 8.3
  Irritability score (Irrit): 0.0
  Profuse salivation score (Pr Sal): 0.0
  Ptosis score (Ptos): 0.0
  Swallowing movements score (Sw M): 1.0
  Weight loss score (W Los): 1.2
  Wet dog shakes score (W D S): 1.7
[1]; [5]
  Abdominal constrictions score (Abd C): 0.0
  Abnormal posture score (Ab P): 0.0
  Chromodacryorrhea score (Chr): 0.0
  Diarrhea score (Diarr): 1.0
  Erection or ejaculation score (Er Ej): 0.0
  Escape attempts score (Esc A): 1.7
  Facial fasciculation or teeth chattering score (F F T C): 2.0
  Global Score: 9.7
  Irritability score (Irrit): 0.0
  Profuse salivation score (Pr Sal): 0.0
  Ptosis score (Ptos): 0.0
  Swallowing movements score (Sw M): 0.3
  Weight loss score (W Los): 1.7
  Wet dog shakes score (W D S): 3.0
[1]; [6]
  Abdominal constrictions score (Abd C): 0.0
  Abnormal posture score (Ab P): 0.0
  Chromodacryorrhea score (Chr): 1.7
  Diarrhea score (Diarr): 1.7
  Erection or ejaculation score (Er Ej): 0.5
  Escape attempts score (Esc A): 2.5
  Facial fasciculation or teeth chattering score (F F T C): 2.0
  Global Score: 14.0
  Irritability score (Irrit): 0.0
  Profuse salivation score (Pr Sal): 1.2
  Ptosis score (Ptos): 0.0
  Swallowing movements score (Sw M): 0.3
  Weight loss score (W Los): 3.2
  Wet dog shakes score (W D S): 1.0
[1]; [7]
  Abdominal constrictions score (Abd C): 0.0
  Abnormal posture score (Ab P): 0.6
  Chromodacryorrhea score (Chr): 1.0
  Diarrhea score (Diarr): 2.0
  Erection or ejaculation score (Er Ej): 0.0
  Escape attempts score (Esc A): 1.6
  Facial fasciculation or teeth chattering score (F F T C): 0.4
  Global Score: 10.4
  Irritability score (Irrit): 0.0
  Profuse salivation score (Pr Sal): 1.4
  Ptosis score (Ptos): 0.0
  Swallowing movements score (Sw M): 0.0
  Weight loss score (W Los): 3.0
  Wet dog shakes score (W D S): 0.4
[1]; mazindol 2 mg/kg
  effect on the score for escape attempt: increased
[1]; mazindol 0.125-2 mg/kg
  effect on the scores for weight loss and diarrhea: Did not significantly reduce
  reduction of the global score (FIG. 4): significant at all doses except 0.125 mg/kg
  reduction of the score for facial fasciculation or teeth chattering (FIG. 6): significant at 2 mg/kg
  reduction of the score for profuse salivation (FIG. 6): significant at all doses except 2 mg/kg
  reduction of the score for wet dog shake (FIG. 5): significant effect at 1 and 2 mg/kg
[1]; mazindol, significant at 0.25, 0.5, 1 and 2 mg/kg, but not at 0.125 mg/kg
  effect on naloxone precipitated withdrawal symptoms of heroin: decreased the naloxone precipitated withdrawal symptoms of heroin
[2]
  inhibition at 10 µM: 52.9%
